Test results: patent US11167034B2, “Polymeric paste compositions for drug delivery” (The University of British Columbia, priority 2017, dated 2021)

How the values were obtained:
[1] = In vitro drug release assay from polymeric paste (RP-HPLC-UV); type: physicochemical; settings: for drug released by day 50: PEG:PLGA 63:37 and PEG:PLGA:Diblock 50:37:13 pastes, 1% docetaxel, 4% enzalutamide, FIG. 12A, 12B; for drug released by day 7: 8% w/w lidocaine
Description: The drug-loaded paste can be aliquoted for in vitro release studies. Paste (50-100 mg) is deposited at the bottom of a test tube and release medium is added (5-10 mL, sink conditions). Release medium is phosphate buffered saline (PBS, 10 mM, pH 7.4)) or PBS containing 1% Albumin. The test tubes are kept in a 37° C. incubator until the end of the study. Release samples are taken at appropriate time points by replacing the complete release medium (supernatant) and analyzing it for total drug using Reversed phase high-performance liquid chromatography with ultraviolet (UV) detection (RP-HPLC-UV).

[2] = Kidney pelvis injection of gemcitabine paste; type: in vivo, pigs; settings: 5% gemcitabine in sodium hyaluronate containing paste, pig kidney pelvis
Description: After placement of a ureteral catheter, three pigs received an injection of 1-2 mL of polymeric paste into the kidney pelvis. After removal of the ureteral catheter, a urinary catheter was placed and urine collected for 3 h intervals over 24 h. Blood was collected from an ear vein over 24 h and gemcitabine concentrations were determined using ultra high performance liquid chromatography tandem mass spectrometry (UHPLC-MS/MS).
The drug gemcitabine was incorporated at 5% (m/m) in the sodium hyaluronate containing paste. This paste was injected through the 5 F catheter into the kidney pelvis of a pig.

[3] = single local injection, regional delivery of lidocaine; cited from earlier work
[4] = Local delivery of lidocaine paste subcutaneously in rats, serum lidocaine; type: in vivo; settings: for maximum serum concentration: subcutaneous, rats
Description: (§1) Five groups of rats (male, Sprague Dawley™) with six animals in each group received one injection of paste formulation (0.1 mL) subcutaneously in their flank. The paste formulation was based on a 50:50 mixture of PEG 300™ and PLGA. Lidocaine was incorporated into the paste at 80, 100, 120, 140, and 160 mg per g of paste. The corresponding doses for each group were 23, 29, 36, 40 and 45 mg of Lidocaine per kg.
Blood was collected from the saphenous vein over four weeks at 0, 0.25, 1, 4, 24, 48, 168 336, 504 and 672 hours after injection. Lidocaine concentrations in rat serum were determined using ultra high performance liquid chromatography tandem mass spectrometry (UHPLC-MS/MS). A non-compartmental analysis was then applied to each data set using Phoenix 64™ (Build 6.3.0.395) WinNonlin 63™ to determine relevant pharmacokinetic parameters.
as §1, with “Sprague Dawley)” for “Sprague Dawley™)”, “of lidocaine” for “of Lidocaine”

[5] = PEG:PLGA:Diblock 50:37:13, lidocaine 10%, desoximetasone 1%, FIG. 14
[6] = PEG:PLGA:Diblock 50:37:13, lidocaine 8%, cephalexin 2%, ibuprofen 5%, FIG. 18
[7] = PEG:PLGA:Diblock 50:37:13, Tamsulosin 2% w/w, FIG. 17
[8] = PEG:PLGA 50:50 paste, docetaxel 4%, bicalutamide 4%, VPC-27 10%, FIG. 3A
[9] = PEG:PLGA:Diblock 50:37:13, docetaxel 0.25%, bicalutamide 4%, VPC-27 4%, FIG. 5
[10] = high diblock concentration (PEG:PLGA:Diblock 50:25:25), docetaxel 0.5%, FIG. 6D
[11] = low diblock concentration (PEG:PLGA:Diblock 50:43:7), docetaxel 0.5%, FIG. 6A

With `C[C@@H]1C[C@H]2[C@@H]3CCC4=CC(=O)C=C[C@]4(C)[C@@]3(F)[C@@H](O)C[C@]2(C)[C@H]1C(=O)CO` [desoximetasone] the “drug released by day 35” value [1, 5] was 100% and the “drug released, burst within the first day” value [1, 5] was 50%.
For `Nc1ccn([C@@H]2O[C@H](CO)[C@@H](O)C2(F)F)c(=O)n1` [gemcitabine], the “blockage of the ureter” value [2] was “did not result in any blockage of the ureter”, the “Gemcitabine levels in urine” value ([2]; FIG. 25A) was “initially high and levelled off after 5-7 hours” and the Serum gemcitabine levels ([2]; FIG. 25B) was “very low, but detectable in all pigs”.
For `CNC(=O)c1ccc(N2C(=S)N(c3ccc(C#N)c(C(F)(F)F)c3)C(=O)C2(C)C)cc1F` [enzalutamide], the “drug released by day 50” value [1] was “approximately 40%”.
In the case of `CC(C)Cc1ccc(C(C)C(=O)O)cc1` (stereo not shown) [Ibuprofen], the “drug released by day 35” value [1, 6] is reported as “approximately 70%” and the “drug released, burst release by day one” value [1, 6] is reported as 54%.
In the case of `CCOc1ccccc1OCCN[C@H](C)Cc1ccc(OC)c(S(N)(=O)=O)c1` [Tamsulosin], the “drug released by day 6” value [1, 7] is reported as 70%, the “drug released on day 21” value [1, 7] is reported as 80% and the “drug released, burst phase on day 1” value [1, 7] is reported as 47%.
In the case of `CC1=C(C(=O)O)N2C(=O)[C@@H](NC(=O)[C@H](N)c3ccccc3)[C@H]2SC1` [Cephalexin], the “drug release at 1 day” value ([1]; PEG:PLGA:Diblock 50:37:13, cephalexin between 2 and 19% loading, PBS without albumin, FIG. 10) is reported as “almost all drug was released” and the “drug released, maximum on day 3” value [1, 6] is reported as 80%.
For `CC(=O)O[C@@]12CO[C@@H]1C[C@H](O)[C@@]1(C)C(=O)[C@H](O)C3=C(C)[C@@H](OC(=O)[C@H](O)[C@@H](NC(=O)OC(C)(C)C)c4ccccc4)C[C@@](O)([C@@H](OC(=O)c4ccccc4)[C@H]21)C3(C)C` [docetaxel], the “drug released, fast burst over 5 days” value [1, 8] was 10%, the “further encapsulated drug released over the next 40 days” value [1, 8] was 20% and the “drug release on day 18” value ([1]; PEG:PLGA 55:45 paste without diblock, docetaxel 1%, bicalutamide 4%, VPC-27 4%, FIG. 8) was “around 10%”. The “drug released by day 50” value [1] was “approximately 50%”, the “drug released after one day” value [1, 9] was 24% and the “drug released on day 35” value [1, 9] was 32%. For the same compound, the “drug release at day 8” value ([1]; PEG:PLGA:Diblock 50:37:13, docetaxel 1%, rapamycin 1%, VPC-27 4%, FIG. 9) was about 45%, the “drug released on day 21” value [1, 10] was 78% and the “drug released, burst on day 1” value [1, 10] was 67%. For the same compound, the “drug released on day 21” value [1, 11] was 34% and the “drug released, burst on day 1” value [1, 11] was 20%.
With `CCN(CC)CC(=O)Nc1c(C)cccc1C` [lidocaine] the “drug released by day 7” value ([1]; PEG:PLGA:Diblock 50:37:13, crescent shape) was 88%, the “drug released by day 7” value ([1]; PEG:PLGA:Diblock 50:37:13, cylinder shape) was 92% and the “drug released by day 7” value ([1]; PEG:PLGA:Diblock 50:37:13, hemisphere shape) was “approximately 65%”. The “drug released by day 35” value [1, 6] was “approximately 70%”, the “drug released, burst release by day one” value [1, 6] was 54% and the “drug released by day 35” value [1, 5] was 80%. The “drug released, burst within the first day” value [1, 5] was 50%, the “drug released by day 18” value ([1]; all PEG:PLGA pastes without diblock (50:50, 55:45, 60:40), 8% lidocaine, FIG. 15) was 100% and the duration [3] was 60 to 120 min. The onset [3] was 3 min, the maximum serum concentration ([4]; 80 mg/g paste (PEG 300:PLGA 50:50), 23 mg/kg) was 557.26 ± 81.15 ng/mL and the maximum serum concentration ([4]; 100 mg/g paste (PEG 300:PLGA 50:50), 29 mg/kg) was 578.90 ± 162.59 ng/mL. The maximum serum concentration ([4]; 120 mg/g paste (PEG 300:PLGA 50:50), 36 mg/kg) was 638.03 ± 190.61 ng/mL, the maximum serum concentration ([4]; 140 mg/g paste (PEG 300:PLGA 50:50), 40 mg/kg) was 855.98 ± 196.18 ng/mL and the maximum serum concentration ([4]; 160 mg/g paste (PEG 300:PLGA 50:50), 45 mg/kg) was 1148.88 ± 838.97 ng/mL. For the same compound, the “maximum concentrations detected in serum in each group” value ([4]; all studied strengths, below upper limit of therapeutic range) was under 5000 ng/mL.
